Assay results: paper PMC10143845, “Series of Organotin(IV) Compounds with Different Dithiocarbamate Ligands Induced Cytotoxicity, Apoptosis and Cell Cycle Arrest on Jurkat E6.1, T Acute Lymphoblastic Leukemia Cells” (Molecules, 2023)
“Also recorded” adds a separate entry of the source. Where two headings read alike, the source gives them in different places.

What was measured:
in vitro = conditions: human
Procedure: (§1) The Jurkat E6.1 (TIB-152™) and WIL2-NS (CRL-8155™) cell lines were purchased from the American Type Culture Collection. These cells were cultured in Roswell Park Memorial Institute Medium 1640, RPMI-1640 supplemented with 10% Fetal Bovine Serum (FBS) and 1% penicillin-streptomycin to obtain the complete growth medium. The cells were incubated at 37 °C with 5% CO2 (New Brunswick Galaxy 170 S, Hamburg, Germany).
(§2) Jurkat E6.1 and WIL2-NS cell lines were cultured in 75 cm^2 flasks and seeded in 96-well culture plates with a final concentration of 1 × 10^6 cells/mL. The cells were exposed to organotin(IV) dithiocarbamate compounds with the highest concentration of 5.0 μM. Vincristine was used in this study as a positive control with its highest concentration, at 5.0 μM, while untreated cells (cells and complete medium only) were used as the negative control. Serial dilution methods are used to obtain the desired concentration gradient and the cells were then exposed to the compounds overnight (24 h). After the incubation period, the WST-1 solution (Roche, Basel, Switzerland) was added in a ratio of 1:10 to the suspension volume in the wells and incubated for another 4 h. Finally, the cells’ optical density (OD) was measured using an ELISA microplate reader (Multiskan FC, Thermo Scientific, Waltham, MA, USA) at 440 nm wavelength. The data obtained were analyzed using GraphPad Prism software (Dotmatics) to determine the IC50 values.
(§3) The selectivity index is determined by dividing the cytotoxic activity (IC50 value) of each compound on a non-cancerous cell line (WIL2-NS) to a leukemia cell line (Jurkat E6.1) using the following equation:SI = IC50 for non cancerous cell line IC50 for cancerous cell line

[1] = system: Jurkat E6.1 human T acute lymphoblastic leukemia cell line; assay: WST-1 cytotoxicity assay on Jurkat E6.1 cells; conditions: for IC50: read-out: Value of IC50 Jurkat E6.1; for Selectivity Index (SI): IC50 non-cancerous cell line (WIL2-NS) / IC50 leukemia cell line (Jurkat E6.1); for kind of effect on the cells (cytostatic or cytotoxic): Jurkat E6.1, WST-1, up to 5.0 μM, 24 h
Procedure: as §1, §2, §3

[2] = system: WIL2-NS non-cancerous cells; assay: WST-1 cytotoxicity assay on WIL2-NS cells; assay type: cell-based; conditions: read-out: Value of IC50 WIL2-NS
Procedure: as §1, §2

Jurkat E6.1 cells [3] = assay: Annexin V-FITC/PI apoptosis assay (mode of cell death) by flow cytometry; assay type: cell-based, human; conditions: Jurkat E6.1, treated at IC50 concentration, 24 h; for cell population in early apoptotic phase / cell population in late apoptotic phase: mean ± SEM; for total apoptosis population: early + late apoptosis
Procedure: Apoptosis assay was performed according to the manufacturer’s instructions using Annexin V-FITC/PI staining kit (BD Biosciences, East Rutherford, NJ, USA). The Jurkat E6.1 cells were seeded in a 6-well plate with a final concentration of 5.0 × 10^5 cell/mL. […] After the incubation period, 500 μL of cells were harvested and transferred into a microcentrifuge tube. The sample was centrifuged at 1500 rpm for 5 min at 4 °C (Mikro 200R, Hettich, Kirchlengern, Germany) and the supernatant was discarded, and 500 μL of cold PBS was added to the sample followed by another centrifugation for 5 min, then the supernatant was discarded. Next, 150 μL of Annexin V binding buffer and 5.0 μL of Annexin V-FITC were added to the sample in the dark and then incubated for 15 min at room temperature. After that, 3.0 μL of propidium iodide (PI) was added to the samples. The samples then incubated for another 2 min at room temperature. Finally, 350 μL of Annexin V binding buffer was added to the samples and transferred into Falcon tubes. The samples were then analyzed using a BD FACS Canto II flow cytometer (BD Bioscience, East Rutherford, NJ, USA).

Jurkat E6.1 cells [4] = assay: Cell cycle analysis with RNase/PI stain by flow cytometry; assay type: cell-based, human; conditions: Jurkat E6.1, treated at IC50 concentration, 24 h; for cells in G0/G1 phase / cells in G2/M phase / cells in S phase: mean ± SEM
Procedure: Cell cycle analysis was performed according to the manufacturer’s instructions using PI/RNase Staining Buffer (BD Bioscience, East Rutherford, NJ, USA). For this assay, the Jurkat E6.1 cell line was cultured in 6-well culture plates with a final concentration of 1.0 × 10^6 cells/mL and treated with organotin(IV) dithiocarbamate compounds for 24 h, with vincristine as the positive control. The concentration of each treatment used was based on the IC50 values obtained from the WST-1 assay. After the incubation period, 500 µL of cell suspension was washed twice with cold PBS and fixed overnight with 500 µL of 70% ethanol. The cells were then stained with 500 µL RNase/PI stain and measured using a BD FACS Canto II flow cytometer (BD Bioscience, East Rutherford, NJ, USA). The cell cycle phases were analyzed using the ModFit LT software (Verity Software House).

Jurkat E6.1 cells [5] = system: Jurkat E6.1 cells; set-up: method as in earlier work; conditions: ref 31 (Kamaludin et al.); cited from earlier work
[6] = WST-1, 24 h exposure, highest concentration 5.0 μM, mean ± SEM, n = 3

SMILES | viability at 24 h, 0.3 µM (in vitro) | IC50 ([1]; Homo sapiens, Jurkat E6.1, 24 h) | Selectivity Index (SI) [1] | kind of effect on the cells (cytostatic or cytotoxic) [1] | IC50 ([2]; Homo sapiens, WIL2-NS, 24 h) | cell population in early apoptotic phase (Jurkat E6.1 cells [3]) | cell population in late apoptotic phase (Jurkat E6.1 cells [3]) | total apoptosis population (Jurkat E6.1 cells [3]) | cells in G0/G1 phase (Jurkat E6.1 cells [4]) | cells in G2/M phase (Jurkat E6.1 cells [4]) | cells in S phase (Jurkat E6.1 cells [4]) | IC50 [1, 6] | IC50 [2, 6] | Value of IC50 Jurkat E6.1 [1, 6] | IC50 (Jurkat E6.1 cells [5]) | Phases of Cell Cycle Arrest (Jurkat E6.1 cells [4])
CC[C@]1(O)C[C@H]2CN(CCc3c([nH]c4ccccc34)[C@@](C(=O)OC)(c3cc4c(cc3OC)N(C=O)[C@H]3[C@@](O)(C(=O)OC)[C@H](OC(C)=O)[C@]5(CC)C=CCN6CC[C@]43[C@@H]65)C2)C1 [Vincristine (positive control), Vincristine, reference compound] | 40% | 240 ± 20 nM | 0.96 | cytostatic effects | 230 ± 30 nM | 36.07 ± 2.85% | 18.57 ± 1.31% | 54.64% | 66.76% ± 1.39 | 8.00% ± 0.00 | 25.24% ± 1.39 | – | – | – | – | –
CC(C)N(C(=S)[S][Sn]([c]1ccccc1)([c]1ccccc1)[c]1ccccc1)C(C)C [ODTC 3, triphenyltin(IV) diisopropyl dithiocarbamate] | – | – | 1.11 | – | – | 59.70 ± 1.96% | 27.80 ± 2.17% | 87.5% | 68.37% ± 4.78 | 4.34% ± 0.99 | 27.29% ± 5.12 | 670 ± 60 nM | 750 ± 70 nM | – | – | –
C=CCN(CC=C)C(=S)[S][Sn]([S]C(=S)N(CC=C)CC=C)([c]1ccccc1)[c]1ccccc1 [ODTC 2, diphenyltin(IV) diallyl dithiocarbamate] | – | – | 0.50 | – | – | 17.20 ± 2.69% | 30.07 ± 2.38% | 47.27% | 21.63% ± 3.17 | 19.03% ± 0.20 | 59.37% ± 3.07 | 1050 ± 20 nM | 520 ± 140 nM | – | – | –
CCN(CC)C(=S)[S][Sn]([CH3])([CH3])[S]C(=S)N(CC)CC [ODTC 7, dimethyltin(IV) diethyl dithiocarbamate] | – | – | 0.15 | – | – | 13.13 ± 2.62% | 14.93 ± 1.35% | 28.06% | 23.41% ± 5.37 | 17.39% ± 4.52 | 57.19% ± 2.89 | 3400 ± 250 nM | 500 ± 20 nM | – | – | –
CC(C)N(C(=S)[S][Sn]([CH3])([CH3])[S]C(=S)N(C(C)C)C(C)C)C(C)C [ODTC 6, dimethyltin(IV) diisopropyl dithiocarbamate] | – | – | – | cytostatic effect | – | – | – | – | – | – | – | – | 5000 ± 20 nM | does not produce IC50 value at the tested range of concentration | – | –
COc1cccc2c1C(=O)c1c(O)c3c(c(O)c1C2=O)C[C@@](O)(C(=O)CO)C[C@@H]3O[C@H]1C[C@H](N)[C@H](O)[C@H](C)O1 [doxorubicin] | – | – | – | – | – | – | – | – | – | – | – | – | – | – | 100 nM | –
CCN(CC)C(=S)[S][Sn]([c]1ccccc1)([c]1ccccc1)[c]1ccccc1 [ODTC 5, triphenyltin(IV) diethyl dithiocarbamate] | – | – | 0.86 | – | – | 56.50 ± 1.64% | 26.47 ± 1.23% | 82.97 ± 2.84% | 9.84% ± 0.71 | 31.46% ± 2.86 | 58.70% ± 3.37 | 920 ± 50 nM | 790 ± 50 nM | – | – | –
C=CCN(CC=C)C(=S)[S][Sn]([c]1ccccc1)([c]1ccccc1)[c]1ccccc1 [ODTC 4, triphenyltin(IV) diallyl dithiocarbamate] | – | – | 0.71 | – | – | 49.70 ± 2.84% | 38.63 ± 2.73% | 88.33% | 13.22% ± 2.30 | 22.67% ± 3.54 | 64.10% ± 4.46 | 940 ± 80 nM | 670 ± 140 nM | – | – | –
CC(C)N(C(=S)[S][Sn]([S]C(=S)N(C(C)C)C(C)C)([c]1ccccc1)[c]1ccccc1)C(C)C [ODTC 1, diphenyltin(IV) diisopropyl dithiocarbamate] | – | – | 0.96 | – | – | 12.23 ± 1.93% | 13.17 ± 1.13% | 25.4% | – | – | – | 1450 ± 20 nM | 1390 ± 460 nM | – | – | does not cause cell cycle arrest at any phase; also recorded: Not cell cycle specific
